Like-named read-outs stand apart in the source and are kept apart here.
Key:
[1] = Plasma levels after transdermal administration to hairless mice; format: in vivo; conditions: mouse, in vivo
Description: Tested compounds (20% solution or suspension in 1 mL isopropanol) are administered transdermally to the skin of intact hairless mice. The plasma levels of the parent compounds are determined by HPLC.

[2] = tested on: mice; assay: Analgesic activity, acetic acid writhing; format: in vivo
Description: The prodrug compounds are administered either transdermally or orally. The parent compounds are administered orally. The number of writhing that occurred when mice are administered the acetic acid solution are counted, and the rate of inhibition based on the control group which was not pretreated with any test compounds is calculated. […] The A group is the control group.

[3] = tested on: rats; assay: Antipyretic activity, E. coli suspension as pyrogen; format: in vivo; conditions: in °C (unit assumed)
Description: Rats are administered with sterilized E. coli suspension as a pyrogen. Each group of rats are administered with a prodrug compounds or parent compounds at a dosage specified below. The prodrug compounds are administered either orally or transdermally. The parent compounds are administered orally.

[4] = tested on: Human breast cancer cells (BCAP-37); assay: Human breast cancer xenograft in nude mice, topical; conditions: day 42, 30 μl of 5% (1.5 mg) topically every 8 hours from day 14; for Tumor size: control 800 ± 100
Description: Human breast cancer cells (BCAP-37, 2-3 mm^3 of tumor tissue was used in each mouse) are subcutaneously xenografted into the front leg of nude mice (BALB, 12 groups, 7 mice each group). […] Then 30 μl of 5% (equal to 1.5 mg of the HPPs) diethylaminoethyl acetylsalicylate.acetylsalicylic acid salt (P-1, in acetone); 1-piperidinepropyl 2[(2,6-dichlorophenyl)amino]benzene acetate.AcOH (P-2, in water), 1-pyrrolidinepropyl 2-(3-benzoylphenyl) propionate.AcOH (P-3, in water), 4-piperidinemethyl 2-(3-phenoxyphenyl)propionate.AcOH (P-4, in water), 3-piperidinemethyl 2-(ρ-isobutylphenyl) propionate.AcOH (P-5, in water), diethylaminoethyl 1-(p-chlorobenzoyl)-5-methoxy-2-methylindole 3-acetate.AcOH (P-11, in water), 2-(4-morpholinyl)ethyl (Z)-5-fluoro-2-methyl-1-[(4-methylsulfinyl) phenylmethylene]-1H-indene-3-acetate.AcOH (P-12, in water), diethylaminoethyl

[5] = tested on: human skin tissue; conditions: pH 7.4
[6] = tested on: rat;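 note: acute toxicity in rats expressed as LD50, determined for both prodrugs and their parent compounds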
Description: The acute toxicity of the prodrug compounds and parent compounds are measured by LD50 of rat.

[7] = tested on: Human colon cancer cells (LS174J); assay: Human colon cancer xenograft in nude mice, topical; conditions: day 30, about 30 μl of 5% solution (1.5 mg) topically applied
Excerpt: Human colon cancer cells (LS174J, 2-3 mm^3 of tumor tissue was used in each mouse) are subcutaneously xenografted into the front leg of nude mice (BALB).

[8] = tested on: Chinese white rabbits; assay: Malassezia-induced lesions similar to psoriasis; format: in vivo, rabbit; conditions: 5% aqueous solution twice per day, 10 days after application
Excerpt: Heavy suspensions of Malassezia [Rosenberg, E. W., et al., Mycopathologia, 72, 147-154 (1980)] were applied to the shaved skin on the backs of the Chinese white rabbits (n=4×6) twice (at 7 am and 7 pm) per day for 2 weeks, lesions similar to psoriasis resulted.

[9] = 50 mg/kg transdermally, 60 minutes before acetic acid
[10] = 100 mg/kg transdermally, 30 min before acetic acid
[11] = 100 mg/kg transdermally, 60 minutes before acetic acid

Molecule	Peak plasma concentration of parent compound after prodrug compound [1] [mg/L]	Tumor size [4] [mm^3]	In vitro penetration rate (apparent flux), prodrug compounds [5] [μg/cm^2/h]	LD50 of HPP ([6]; rats) [mg/kg]	Tumor size [7] [mm^3]	t, time to peak plasma level of parent compound after prodrug compound [1] [min]	% (rate of writhing inhibition) [2, 10] [%]	No. of Writhing [2, 10]	body temperature, t = 0 min ([3]; 100 mg/kg transdermally)	body temperature, t = 90 min ([3]; 100 mg/kg transdermally)	body temperature, t = 180 min ([3]; 100 mg/kg transdermally)	body temperature, t = 270 min ([3]; 100 mg/kg transdermally)	also measured
CN(C)CCCC(=O)OC1=C(C(=O)Nc2ccccn2)N(C)S(=O)(=O)c2ccccc21.Cl [4-N,N-dimethylaminobutyryloxy-2-methyl-N-2-pyridinyl-2H,1,2-benzothiazine-3-carboxamide 1,1-dioxide.HCl]	20	390 ± 50	1700	550	–	–	–	–	–	–	–	–	% (rate of writhing inhibition) [2, 9]: 55%; No. of Writhing [2, 9]: 15.6; body temperature, t = 0 min ([3]; 25 mg/kg transdermally): 37.57 ± 0.06; body temperature, t = 90 min ([3]; 25 mg/kg transdermally): 36.51 ± 0.05; body temperature, t = 180 min ([3]; 25 mg/kg transdermally): 36.40 ± 0.06; body temperature, t = 270 min ([3]; 25 mg/kg transdermally): 36.45 ± 0.07
CC(=O)O.O=C(Cc1ccccc1Nc1c(Cl)cccc1Cl)OCCCN1CCCCC1 [P-2, 1-piperidinepropyl 2[(2,6-dichlorophenyl)amino]benzene acetate.AcOH]	–	180 ± 50	–	–	480 ± 180	–	–	–	–	–	–	–	Mouse weight ([4]; control 22 ± 2): 22 ± 2 g; Mouse weight [7]: 22 ± 2 g
CC(=O)O.CC(C(=O)OCCCN1CCCC1)c1cccc(C(=O)c2ccccc2)c1 (stereo not shown) [P-3, 1-pyrrolidinepropyl 2-(3-benzoylphenyl) propionate.AcOH]	–	200 ± 50	–	–	500 ± 150	–	–	–	–	–	–	–	–
CC(=O)O.CC(C(=O)OCC1CCNCC1)c1cccc(Oc2ccccc2)c1 (stereo not shown) [P-4, 4-piperidinemethyl 2-(3-phenoxyphenyl)propionate.AcOH]	–	180 ± 50	–	–	480 ± 120	–	–	–	–	–	–	–	–
CC(=O)O.Nc1c(CC(=O)OCCN2CCOCC2)cccc1C(=O)c1ccccc1 [P-16, 2-(4-morpholinyl)ethyl 2-amino-3-benzoylbenzeneacetate.AcOH]	–	–	–	–	550 ± 150	–	–	–	–	–	–	–	–
CC(=O)O.CCc1cccc2c3c([nH]c12)C(CC)(CC(=O)OCCN(CC)CC)OCC3 (stereo not shown) [diethylaminoethyl 1,8-diethyl-1,3,4,9-tetrahydropyrano-[3,4-b]indole-1-acetate.AcOH]	20	–	1300	600	–	50	60	14.0	37.23 ± 0.06	36.65 ± 0.06	36.58 ± 0.08	36.60 ± 0.07	lesions similar to psoriasis [8]: the lesions were resolved
CC(=O)O.CCN(CC)CCOC(=O)COC(=O)Cc1c(C)n(C(=O)c2ccc(Cl)cc2)c2ccc(OC)cc12 [diethylaminoethyl 1-(4-chlorobenzoyl-5-methoxy-2-methyl-1H-indole-3-acetoxyacetate.AcOH]	20	–	1200	–	–	50	55	15.6	37.21 ± 0.06	36.75 ± 0.05	36.62 ± 0.08	36.58 ± 0.07	lesions similar to psoriasis [8]: the lesions were resolved; LD50 of HPP ([6]; rat, in vivo): 1200 mg/kg
CC(=O)O.CCN(CC)CCOC(=O)Cc1ccccc1Oc1ccc(Cl)cc1Cl [diethylaminoethyl 2-(2,4-dichlorophenoxy)benzeneacetate.AcOH]	20	280 ± 50	1500	200	–	50	59	14.2	37.22 ± 0.06	36.65 ± 0.06	36.58 ± 0.08	36.56 ± 0.07	–
CC(=O)O.CCN(CC)CCOC(=O)C(C)c1ccc2c(c1)C(=O)Cc1cc(C)ccc1O2 (stereo not shown) [diethylaminoethyl 2-(8-methyl-10, 11-dihydro-11-oxodibenz(b,f)oxepin-2-yl)propionate.AcOH]	2000	250 ± 50	4100	–	–	50	61	13.8	37.26 ± 0.07	36.80 ± 0.06	36.70 ± 0.05	36.57 ± 0.08	–
CC(=O)O.CCN(CC)CCOC(=O)C(C)c1ccc2c(c1)CC(=O)c1ccccc1S2 (stereo not shown) [diethylaminoethyl 2-(10, 11-dihydro-10-oxodibenzo(b,f)thiepin-2-yl)propionate.AcOH]	2000	–	3700	–	480 ± 180	50	59	14.2	37.25 ± 0.06	36.71 ± 0.05	36.65 ± 0.08	36.64 ± 0.07	–
CC(=O)O.CCN(CC)CCOC(=O)c1ccccc1Nc1cccc(C)c1C [diethylaminoethyl 2-[(2,3-dimethylphenyl)amino]benzoate.AcOH]	20	–	2100	900	650 ± 250	50	–	–	37.35 ± 0.06	36.71 ± 0.05	36.60 ± 0.08	36.59 ± 0.07	% (rate of writhing inhibition) [2, 11]: 55%; No. of Writhing [2, 11]: 15.6
CC(=O)O.CCN(CC)CCOC(=O)c1ccccc1Nc1c(Cl)ccc(C)c1Cl [diethylaminoethyl 2-[(2,6-dichloro-3-methylphenyl)amino]benzoate.AcOH]	20	–	2000	1000	490 ± 150	50	–	–	37.28 ± 0.06	36.68 ± 0.05	36.62 ± 0.08	36.58 ± 0.07	% (rate of writhing inhibition) [2, 11]: 59%; No. of Writhing [2, 11]: 14.2
CC(=O)O.CCN(CC)CCOC(=O)Cc1cn(-c2ccccc2)nc1-c1ccc(Cl)cc1 [diethylaminoethyl 3-(4-chlorophenyl)-1-phenyl-1H-pyrazole-4-acetate.AcOH]	20	–	–	1200	–	50	57	15.2	37.22 ± 0.07	36.82 ± 0.06	36.80 ± 0.05	36.77 ± 0.08	lesions similar to psoriasis [8]: the lesions were resolved
N-(2-thiazolyl)-4-N,N-dimethylaminobutyryloxy-2-methyl-2H,1,2-benzothiazine-3-carboxamide 1,1-dioxide.HCl	20	–	1500	670	690 ± 250	50	–	–	–	–	–	–	% (rate of writhing inhibition) [2, 9]: 55%; No. of Writhing [2, 9]: 15.7; body temperature, t = 0 min ([3]; 25 mg/kg transdermally): 37.50 ± 0.07; body temperature, t = 90 min ([3]; 25 mg/kg transdermally): 36.61 ± 0.04; body temperature, t = 180 min ([3]; 25 mg/kg transdermally): 36.50 ± 0.07; body temperature, t = 270 min ([3]; 25 mg/kg transdermally): 36.60 ± 0.05
